Results: US20250000852A1, “NITROXOLINE FOR USE IN THE TREATMENT OR PREVENTION OF A PLEXIFORM NEUROFIBROMA” (HEALX LTD, priority 2021, published 2025)

How the values were obtained:
[1] = test system: NF1−/− (ipNF95.6) immortalized human-derived Schwann cells; test: Caspase-Glo 3/7 apoptosis assay, NF1 deficient Schwann cells; assay type: cell-based
Source text: (§1) In this study the efficacy of nitroxoline was investigated and its ability to reduce cellular proliferation, increase apoptosis, and overall cell viability utilizing immortalized wild-type (WT) and NF1 deficient (Nf1^−/−) Schwann cells (SCs). Nf1^−/− SCs have increased survival and proliferation in vitro, consistent with the in vivo phenotypes (Kim H A et al., Mol Cell Biol. 1997; 17 (2): 862-72). The present studies utilize WT (ipn02.3λ) and NF1^−/− (ipNF95.6) immortalized human-derived SC lines. The selectivity of nitroxoline was compared between NF1^−/− and WT cells.
(§2) Cells were treated with serially diluted nitroxoline starting from […] and incubated for 48 hours. After the incubation period, proliferation, viability, and apoptosis assays were performed as described below: • Cell proliferation was assessed using the CellTiter-Glo Assay (Promega) which measures ATP consumption. […] After 10 minutes, the plates were read using a 96-well microplate luminometer. • Cellular apoptosis was assessed using the Caspase-Glo 3/7 kit (Promega). […] After 10 minutes, plates were read using a 96 well luminometer and caspase 3/7 activity was measured.

[2] = test system: Postn-Cre+ Nf1fl/fl mouse model of plexiform neurofibroma; test: In vivo drug testing in Nf1-KO mice (plexiform neurofibroma model); details: oral gavage, 12 weeks
Source text: The aim of this study was to evaluate the effect of nitroxoline in a mouse model of neurofibromatosis type 1, more specifically a model that develops plexiform neurofibromas. This study is the same used by AstraZeneca for the approval of selumetinib for pNF.
This study uses the Postn-Cre+Nf1^fl/fl mouse model of plexiform neurofibroma. The neurofibromas that arise in these mice faithfully recapitulate human disease (Burks et al. 2019). At 4 months of age when mice (male and female) had established plexiform neurofibromas they were randomised into three treatment groups and administered nitroxoline at 120 mg/kg QD, 120 mg/kg BD or vehicle (10% DMSO in 90% corn oil) via oral gavage. Mice were treated for 12 weeks then sacrificed. Mice were perfused and fixed in 10% neutral buffered formalin.
The whole bodies were decalcified in 5% formic acid, the spinal proximal nerve tree was dissected, and nerve width (including the tumour formed along it) measured via calliper (shown in FIG. 3) across four nerves per mouse. Nerve volume was subsequently calculated using a spheroid calculation: 0.52×(width) 2 w length.
To quantify tumour number, the nerves were processed to paraffin blocks, sectioned, and stained for collagen using Masson's trichrome stain. Tumour number was scored from these slides by a clinician.
Graphs and statistical analysis of data were produced using GraphPad Prism (Ver 9).

[3] = test system: WT (ipn02.3λ) immortalized human-derived Schwann cells; test: CellTiter-Glo cell proliferation assay, WT Schwann cells; assay type: cell-based; details: 48 hours incubation
Source text: as §1, §2

[4] = test system: WT (ipn02.3λ) immortalized human-derived Schwann cells; test: Caspase-Glo 3/7 apoptosis assay, WT Schwann cells; assay type: cell-based; details: 48 hours incubation, caspase 3/7 activity
Source text: as §1, §2

[5] = test system: NF1−/− (ipNF95.6) immortalized human-derived Schwann cells; test: CellTiter-Glo cell proliferation assay, NF1 deficient Schwann cells; assay type: cell-based; details: 48 hours incubation
Source text: as §1, §2

O=[N+]([O-])c1ccc(O)c2ncccc12 [Nitroxoline, 5-nitroquinolin-8-ol]
concentration at which induction of apoptosis was evident ([1]; Nf1−/− Schwann cells, 48 hours incubation, caspase 3/7 activity): greater than 3 UM
magnitude of the increase in apoptosis in Nf1−/− SC compared with WT SC ([1]; at concentrations greater than 10 μM, 48 hours): significantly greater
proximal nerve volume compared to vehicle treated control mice ([2]; 120 mg/kg BD): lower proximal nerve volumes
proximal nerve volume compared to vehicle treated control mice ([2]; 120 mg/kg QD): lower proximal nerve volumes
tumour number along the nerves compared to vehicle controls ([2]; nitroxoline treated mice (120 mg/kg QD or BD)): a reduction in tumour number
concentration at which antiproliferative effect was observed [3]: greater than 1 μM
concentration at which induction of apoptosis was evident [4]: greater than 3 UM
concentration at which antiproliferative effect was observed [5]: greater than 1 μM
